What was measured:
rats = assay: Behavioural observations in treated rats; type: in vivo, rat; details: in some DMT- (and harmine-) treated rats; not systematically assessed
[1] = target: T1, serotonin 5-HT2A receptors (Rattus norvegicus, UniProt P14842); assay: Ex vivo occupancy at frontal cortex 5-HT2A receptors with [^3H]ketanserin (experiment 1); type: in vivo
T1 construct: from tissue; host or cells: rat frontal cortex (living rat brain, measured ex vivo after in vivo radioligand injection)
T1 sequence (P14842 whole entry): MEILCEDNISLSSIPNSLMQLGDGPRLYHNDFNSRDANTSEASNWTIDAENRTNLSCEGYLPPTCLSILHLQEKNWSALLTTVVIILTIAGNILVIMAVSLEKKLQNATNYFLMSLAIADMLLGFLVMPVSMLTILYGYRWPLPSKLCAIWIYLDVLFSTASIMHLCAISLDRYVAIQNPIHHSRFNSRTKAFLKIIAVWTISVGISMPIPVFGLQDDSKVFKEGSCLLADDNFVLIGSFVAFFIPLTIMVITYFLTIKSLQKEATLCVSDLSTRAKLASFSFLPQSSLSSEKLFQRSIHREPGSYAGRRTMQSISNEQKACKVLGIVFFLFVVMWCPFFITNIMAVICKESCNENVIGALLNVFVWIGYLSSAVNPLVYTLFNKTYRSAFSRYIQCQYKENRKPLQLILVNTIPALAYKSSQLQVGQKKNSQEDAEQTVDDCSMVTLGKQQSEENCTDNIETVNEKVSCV
Procedure: Groups of (n = 6) rats received either saline, harmine (1 mg/kg), DMT (1 mg/kg), or harmine + DMT (1 mg/kg each) as subcutaneous injections, as indicated in Figure 1. Approximately 5 minutes later, the animals were lightly anesthetized using (2% isoflurane in pure oxygen) and received [^3H]ketanserin (300 kBq; 740 MBq/µmol) as a bolus injection in 0.2 mL saline via a tail vein. […] At the conclusion of the PET recording, rats were sacrificed while still anesthetized, thus 95 min after drug administration. Terminal samples of cerebellum (non-binding reference tissue) and frontal cortex were transferred to preweighed 7 mL liquid scintillation vials, reweighed, and added with 0.9 mL of aqueous based solubilizer (Solvable, Perkin Elmer) for dissolution during 48 h at room temperature. Next, 7 mL of liquid scintillation counting cocktail (Ultima Gold™ XR, Perkin Elmer) was added to each sample, and the content of tritium (i.e., [^3H]ketanserin, cpm/mg) was measured by liquid scintillation counting (TRI-CARB, Perkin Elmer). We calculated the occupancy by DMT at frontal cortex 5-HT2A receptors for the three treatment groups relative to the specific binding ratio ([cortex-cerebellum]/cerebellum) for the control group.

[2] = target: T1, serotonin 5-HT2A receptors; assay: Ex vivo occupancy at frontal cortex 5-HT2A receptors with [^18F]MH.MZ (experiment 2); type: in vivo; details: Experiment 2, [^18F]MH.MZ
Procedure: Animals were lightly sedated using 2% isoflurane in pure oxygen at 20 min post DMT injection, whereupon they received a 0.2 mL intravenous injection of [^18F]MH.MZ diluted in saline to a radiochemical concentration of approximately 20 MBq/mL. Rats then returned to their home cage with withdrawal of anesthesia. After 45 min, rats were sacrificed by decapitation, and the brains dissected into cerebellum and frontal cortex samples for radioactivity measurement and chemical analysis, thus 65 min after harmine + DMT. The gamma-activity in weighed samples of cerebellum and frontal cortex regions was counted with a Packard Cobra gamma counter (GMI, Ramsey, Minnesota, US), as previously reported ([Bærentzen et al., 2019]). As with [^3H]ketanserin, the occupancy at [^18F]MH.MZ binding sites in frontal cortex was calculated from the specific binding ratio (cortex-cerebellum)/cerebellum) measured in the saline control and treatment groups.

brain glucose metabolism = assay: [^18F]FDG-PET of cerebral glucose metabolism (experiment 1); type: in vivo, rat; details: for [^18F]FDG-PET SUV normalized to whole-brain uptake (SUVglob): 1 mg/kg s.c.; for [^18F]FDG-PET SUV normalized to whole-brain uptake (SUVglob) / [^18F]FDG-PET glucose normalized SUV (SUVgluc): mean (SD)
Procedure: The dynamic PET recordings were histogrammed into six frames of 5 minutes each, and reconstructed with attenuation, decay, and scatter correction using the OSEM3D/SP-MAP algorithm (2 x OSEM iterations and 18 x MAP iterations) with a matrix size of 128 × 128 pixels, resulting in a final target resolution of 0.8 mm/pixel. Pre-processing of PET scans was performed using PMOD v4.2 (PMOD Technologies LLC, Zurich, Switzerland). The [^18F]FDG images were averaged across the six frames and then converted into standardized uptake values (SUV), whereupon the image was cropped to the head of the animal and automatically co-registered to a standard [^18F]FDG-PET template. We used Schiffer’s atlas ([Schiffer et al., 2006]) for parcellation of bilateral brain regions within the cortico-striato-thalamo-cortical (CSTC) circuit, i.e. bilateral nucleus accumbens (NAc), medial prefrontal cortex (mPFC), orbitofrontal cortex (OFC), hippocampus, striatum, thalamus, visual cortex, cerebellum as a comparator region, and whole brain. We selected these regions from the CSTC circuit based on a conceptual model holding that the thalamus acts as a filter/gatekeeper of sensory information, broadcasting to cortical regions that subserve conscious experience ([Wang et al., 2006]; [McAlonan et al., 2008]). Perturbation of this CSTC circuit is implicated in the action of psychedelic compounds ([Geyer and Vollenweider, 2008]; [Preller et al., 2019]). We scaled individual regional SUV results to the mean blood glucose levels measured during the recording session (SUVgluc) and to the global [^18F]FDG uptake (SUVglob).

serotonin 5-HT1A = test system: serotonin 5-HT1A; parameters: method as in ref Lyon et al., 1988; Pierce and Peroutka, 1989; McKenna et al., 1990; Keiser et al., 2009; Ray, 2010; details: ref Lyon et al., 1988; Pierce and Peroutka, 1989; McKenna et al., 1990; Keiser et al., 2009; Ray, 2010; cited from earlier work
5-HT2C receptors = target: 5-HT2C receptors; parameters: method as in ref Lyon et al., 1988; Pierce and Peroutka, 1989; McKenna et al., 1990; Keiser et al., 2009; Ray, 2010; details: ref Lyon et al., 1988; Pierce and Peroutka, 1989; McKenna et al., 1990; Keiser et al., 2009; Ray, 2010; cited from earlier work
brain 5-HT2A receptors = details: calculated; humans, oral DMT and harmine; ref Koeck, 2015; cited from earlier work
[3] = target: serotonin 5-HT2A receptors; parameters: method as in ref Lyon et al., 1988; Pierce and Peroutka, 1989; McKenna et al., 1990; Keiser et al., 2009; Ray, 2010; details: ref Lyon et al., 1988, Pierce and Peroutka, 1989, McKenna et al., 1990, Keiser et al., 2009, Ray, 2010, cited from earlier work
[4] = Brain concentrations of harmine, DMT and metabolites by UHPLC-MS after s.c. harmine and/or DMT; details: for concentration at 95 min / concentration at 65 min: rat, subcutaneous
Procedure: Groups of (n = 6) rats received either saline, harmine (1 mg/kg), DMT (1 mg/kg), or harmine + DMT (1 mg/kg each) as subcutaneous injections, as indicated in Figure 1.
After 45 min, rats were sacrificed by decapitation, and the brains dissected into cerebellum and frontal cortex samples for radioactivity measurement and chemical analysis, thus 65 min after harmine + DMT.

## CN(C)CCc1c[nH]c2ccccc12 [DMT, N,N-dimethyltryptamine]
rats
  Head twitch response: observed the characteristic dose-dependent head twitch response
[1]; Experiment 1, 1 mg/kg each s.c., 95 min after administration, (cortex-cerebellum)/cerebellum
  [^3H]ketanserin specific binding ratio in frontal cortex: 2.15 ± 0.39
[1]; Experiment 1, [^3H]ketanserin
  Occupancy at 5-HT2A sites ex vivo: unable to detect any such occupancy
[2]
  Occupancy at 5-HT2A sites ex vivo: unable to detect any such occupancy
Brain glucose metabolism; 1 mg/kg, separately or in combination
  Qualitative effect on brain [^18F]FDG uptake (SUVglob maps): no conspicuous effects
Brain glucose metabolism; Experiment 1, 1 mg/kg
  Trend towards relative increase in SUVglob in hippocampus and thalamus: ~5%
Brain glucose metabolism; NAc
  [^18F]FDG-PET SUV normalized to whole-brain uptake (SUVglob): 6.2 (0.36) SUV
Brain glucose metabolism; NAc, 1 mg/kg
  [^18F]FDG-PET glucose normalized SUV (SUVgluc): 6.48 (0.93) SUV
Brain glucose metabolism; OFC
  [^18F]FDG-PET SUV normalized to whole-brain uptake (SUVglob): 6.52 (0.15) SUV
Brain glucose metabolism; OFC, 1 mg/kg
  [^18F]FDG-PET glucose normalized SUV (SUVgluc): 6.82 (0.84) SUV
Brain glucose metabolism; cerebellum
  [^18F]FDG-PET SUV normalized to whole-brain uptake (SUVglob): 4.56 (0.23) SUV
Brain glucose metabolism; cerebellum, 1 mg/kg
  [^18F]FDG-PET glucose normalized SUV (SUVgluc): 4.76 (0.64) SUV
Brain glucose metabolism; hippocampus
  [^18F]FDG-PET SUV normalized to whole-brain uptake (SUVglob): 4.95 (0.21) SUV
Brain glucose metabolism; hippocampus, 1 mg/kg
  [^18F]FDG-PET glucose normalized SUV (SUVgluc): 5.2 (0.85) SUV
Brain glucose metabolism; mPFC
  [^18F]FDG-PET SUV normalized to whole-brain uptake (SUVglob): 6.95 (0.34) SUV
Brain glucose metabolism; mPFC, 1 mg/kg
  [^18F]FDG-PET glucose normalized SUV (SUVgluc): 7.3 (1.24) SUV
Brain glucose metabolism; striatum
  [^18F]FDG-PET SUV normalized to whole-brain uptake (SUVglob): 6.91 (0.24) SUV
Brain glucose metabolism; striatum, 1 mg/kg
  [^18F]FDG-PET glucose normalized SUV (SUVgluc): 7.24 (1.07) SUV
Brain glucose metabolism; thalamus
  [^18F]FDG-PET SUV normalized to whole-brain uptake (SUVglob): 6.33 (0.1) SUV
Brain glucose metabolism; thalamus, 1 mg/kg
  [^18F]FDG-PET glucose normalized SUV (SUVgluc): 6.62 (0.86) SUV
Brain glucose metabolism; visual cortex
  [^18F]FDG-PET SUV normalized to whole-brain uptake (SUVglob): 6.27 (0.13) SUV
Brain glucose metabolism; visual cortex, 1 mg/kg
  [^18F]FDG-PET glucose normalized SUV (SUVgluc): 6.57 (0.99) SUV
Brain glucose metabolism; whole brain, 1 mg/kg
  [^18F]FDG-PET glucose normalized SUV (SUVgluc): 5.8 (0.81) SUV
Serotonin 5-HT1A
  IC50: 170 nM
  Ki: 183 nM
5-HT2C receptors
  IC50: 360 nM
  Ki: 360 to 2630 nM
Brain 5-HT2A receptors
  Time of peak DMT occupancy post-administration: 0.5 to 1.5 h
[3]; read-out: IC50 at 5-HT2A receptors in vitro
  IC50: 75 to 360 nM
[3]; read-out: Ki at 5-HT2A receptors in vitro
  Ki: 127 to 1200 nM
[4]; Exp 1, group DMT, average of regions
  Percentage of total molar concentration of DMT and metabolites: 2.3%
[4]; Exp 1, group DMT, cerebellum
  Percentage of total molar concentration of DMT and metabolites: 2.0%
[4]; Exp 1, group DMT, front cort
  Percentage of total molar concentration of DMT and metabolites: 2.6%
[4]; Exp 1, group Har + DMT, average of regions
  Percentage of total molar concentration of DMT and metabolites: 33.9%
[4]; Exp 1, group Har + DMT, cerebellum
  Percentage of total molar concentration of DMT and metabolites: 32.9%
[4]; Exp 1, group Har + DMT, front cort
  Percentage of total molar concentration of DMT and metabolites: 34.7%
[4]; Exp 2, group Har + DMT, average of regions
  Percentage of total molar concentration of DMT and metabolites: 73.3%
[4]; Exp 2, group Har + DMT, cerebellum
  Percentage of total molar concentration of DMT and metabolites: 71.1%
[4]; Exp 2, group Har + DMT, front cort
  Percentage of total molar concentration of DMT and metabolites: 74.9%
[4]; Experiment 1, after DMT alone (1 mg/kg)
  DMT detectable in brain: Only traces
[4]; Experiment 1, cerebellum, group Har + DMT (1 mg/kg each s.c.), 95 min, mean (SD)
  Brain concentration: 105.1 (89.2) ng/g
[4]; Experiment 1, frontal cortex, group Har + DMT (1 mg/kg each s.c.), 95 min, mean (SD)
  Brain concentration: 149.5 (123.2) ng/g
[4]; Experiment 1, harmine + DMT 1 mg/kg each
  DMT/3-IAA ratio in brain: approximately 0.53
[4]; Experiment 2, cerebellum, group Har + DMT (3 mg/kg each s.c.), 65 min, mean (SD)
  Brain concentration: 1472.7 (369.2) ng/g
[4]; Experiment 2, frontal cortex, group Har + DMT (3 mg/kg each s.c.), 65 min, mean (SD)
  Brain concentration: 2122.7 (434.2) ng/g
[4]; Experiment 2, harmine + DMT 3 mg/kg each
  DMT/3-IAA ratio in brain: ~2.83
[4]; Experiment 2 versus experiment 1
  Brain concentration after 3 mg/kg harmine + DMT relative to the lower harmine + DMT dose: 14 fold
[4]; Experiments 1 and 2, harmine + DMT
  Higher DMT concentration in frontal cortex compared to cerebellum: 50%
[4]; brain (average of frontal cortex and cerebellum), 1 mg/kg, Molar concentration, Exp 1, group DMT, average of regions
  concentration at 95 min: 61.5 nM
[4]; brain (average of frontal cortex and cerebellum), Molar concentration, Exp 1, group Har + DMT, average of regions
  concentration at 95 min: 676 nM
[4]; brain (average of frontal cortex and cerebellum), Molar concentration, Exp 2, group Har + DMT, average of regions
  concentration at 65 min: 9550 nM
[4]; cerebellum, 1 mg/kg, Brain concentration, Experiment 1, cerebellum, group DMT (1 mg/kg s.c.), 95 min, mean (SD)
  concentration at 95 min: 8.7 ng/g
[4]; cerebellum, 1 mg/kg, Molar concentration, Exp 1, group DMT, cerebellum
  concentration at 95 min: 46 nM
[4]; cerebellum, Brain concentration, Experiment 1, cerebellum, after harmine + DMT (1 mg/kg each)
  concentration at 95 min: 600 nM
[4]; cerebellum, Brain concentration, Experiment 1, cerebellum, group Har (harmine 1 mg/kg s.c.), 95 min after drug, mean (SD)
  concentration at 95 min: 4.1 ng/g
[4]; cerebellum, Brain concentration, Experiment 1, cerebellum, group Har + DMT (1 mg/kg each s.c.), 95 min, mean (SD)
  concentration at 95 min: 105 ng/g
[4]; cerebellum, Brain concentration, Experiment 2, cerebellum, after harmine + DMT (3 mg/kg each)
  concentration at 65 min: 7800 nM
[4]; cerebellum, Brain concentration, Experiment 2, cerebellum, group Har + DMT (3 mg/kg each s.c.), 65 min, mean (SD)
  concentration at 65 min: 1470 ng/g
[4]; cerebellum, Molar concentration, Exp 1, group Har + DMT, cerebellum
  concentration at 95 min: 558 nM
[4]; cerebellum, Molar concentration, Exp 2, group Har + DMT, cerebellum
  concentration at 65 min: 7820 nM
[4]; frontal cortex, 1 mg/kg, Brain concentration, Experiment 1, frontal cortex, group DMT (1 mg/kg s.c.), 95 min, mean (SD)
  concentration at 95 min: 14.5 ng/g
[4]; frontal cortex, 1 mg/kg, Molar concentration, Exp 1, group DMT, front cort
  concentration at 95 min: 77.1 nM
[4]; frontal cortex, Brain concentration, Experiment 1, frontal cortex, after harmine + DMT (1 mg/kg each), 95 min
  concentration at 95 min: 800 nM
[4]; frontal cortex, Brain concentration, Experiment 1, frontal cortex, group Har (harmine 1 mg/kg s.c.), 95 min, mean (SD)
  concentration at 95 min: 4.8 ng/g
[4]; frontal cortex, Brain concentration, Experiment 1, frontal cortex, group Har + DMT (1 mg/kg each s.c.), 95 min, mean (SD)
  concentration at 95 min: 150 ng/g
[4]; frontal cortex, Brain concentration, Experiment 2, frontal cortex, after harmine + DMT (3 mg/kg each), 65 min
  concentration at 65 min: ≤ 11300 nM
[4]; frontal cortex, Brain concentration, Experiment 2, frontal cortex, group Har + DMT (3 mg/kg each s.c.), 65 min, mean (SD)
  concentration at 65 min: 2120 ng/g
[4]; frontal cortex, Molar concentration, Exp 1, group Har + DMT, front cort
  concentration at 95 min: 794 nM
[4]; frontal cortex, Molar concentration, Exp 2, group Har + DMT, front cort
  concentration at 65 min: 11300 nM

From article PMC10568461, “A pilot study of cerebral metabolism and serotonin 5-HT2A receptor occupancy in rats treated with the psychedelic tryptamine DMT in conjunction with the MAO inhibitor harmine” (Frontiers in Pharmacology, 2023)
